According to ChEMBL document CHEMBL6114965, “Novel dual-targeting PROTAC degraders of GSK-3β and CDK5: A promising approach for pancreatic cancer treatment” (Bioorg Med Chem, 2025):
Calls of active or inactive are those of the source. No cut-off for these calls is given here.

What was measured:
[1] = biological target: T1, Protein cereblon/Glycogen synthase kinase-3 beta (Homo sapiens, UniProt P49841+Q96SW2); experiment: PROTAC activity at CRBN/GSK3beta in human PANC-1 cells assessed as induction of GSK3beta degradation at 0.5 to 2.8 uM incubated for 10 hrs in presence of MG132 by Western blot analysis; assay type: cell-based; details: dose 0.5-2.8 µM
Target sequence in this assay (P49841 whole entry, looked up): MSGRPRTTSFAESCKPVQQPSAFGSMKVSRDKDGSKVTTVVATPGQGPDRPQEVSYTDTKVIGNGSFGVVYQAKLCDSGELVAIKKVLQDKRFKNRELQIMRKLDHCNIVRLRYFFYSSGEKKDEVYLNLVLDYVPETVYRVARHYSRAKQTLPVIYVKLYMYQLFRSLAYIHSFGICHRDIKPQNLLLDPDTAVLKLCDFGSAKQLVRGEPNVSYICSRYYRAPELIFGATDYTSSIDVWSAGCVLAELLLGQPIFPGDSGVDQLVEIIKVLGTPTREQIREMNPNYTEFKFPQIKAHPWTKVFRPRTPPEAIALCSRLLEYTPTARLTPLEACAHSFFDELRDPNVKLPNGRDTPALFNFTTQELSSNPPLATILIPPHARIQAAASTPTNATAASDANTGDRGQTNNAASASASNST
Target sequence in this assay (Q96SW2 whole entry, looked up): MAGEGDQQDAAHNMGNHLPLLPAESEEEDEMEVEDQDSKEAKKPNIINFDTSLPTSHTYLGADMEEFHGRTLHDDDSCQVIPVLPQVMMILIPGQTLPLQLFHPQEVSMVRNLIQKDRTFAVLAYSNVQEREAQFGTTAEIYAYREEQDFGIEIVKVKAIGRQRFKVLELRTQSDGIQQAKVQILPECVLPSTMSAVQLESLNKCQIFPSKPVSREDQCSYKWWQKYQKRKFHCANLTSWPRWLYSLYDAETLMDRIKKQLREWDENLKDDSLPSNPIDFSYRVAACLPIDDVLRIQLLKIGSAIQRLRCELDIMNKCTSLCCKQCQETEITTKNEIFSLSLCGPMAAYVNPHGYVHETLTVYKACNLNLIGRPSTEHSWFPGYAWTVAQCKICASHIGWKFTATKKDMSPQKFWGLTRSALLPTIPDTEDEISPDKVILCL

[2] = biological target: T1, Protein cereblon/Glycogen synthase kinase-3 beta; experiment: PROTAC activity at CRBN/GSK3beta in human PANC-1 cells assessed as induction of GSK3beta degradation by measuring maximal efficacy by target engagement binding based cell-ELISA relative to control
Target sequence in this assay (P49841 whole entry, looked up): as the sequence (P49841 whole entry, looked up) above
Target sequence in this assay (Q96SW2 whole entry, looked up): as the sequence (Q96SW2 whole entry, looked up) above

MIA PaCa-2 = experiment: Antiproliferative activity against human MIA PaCa-2 cells assessed as inhibition of cell viability by MTT assay; assay type: functional, cell-based
ASPC1 = experiment: Antiproliferative activity against human ASPC1 cells assessed as inhibition of cell viability by MTT assay; assay type: functional, cell-based
BXPC-3 = experiment: Antiproliferative activity against human BXPC-3 cells assessed as inhibition of cell viability by MTT assay; assay type: functional, cell-based
[3] = biological target: T1, Protein cereblon/Glycogen synthase kinase-3 beta; experiment: PROTAC activity at CRBN/GSK3beta in human PANC-1 cells assessed as induction of GSK3beta degradation by target engagement binding based cell-ELISA
Target sequence in this assay (P49841 whole entry): as the sequence (P49841 whole entry, looked up) above
Target sequence in this assay (Q96SW2 whole entry): as the sequence (Q96SW2 whole entry, looked up) above

PANC-1 = experiment: Antiproliferative activity against human PANC-1 cells assessed as inhibition of cell viability by MTT assay; assay type: functional, cell-based
[4] = biological target: T2, Protein cereblon/Cyclin-dependent kinase 5 (Homo sapiens, UniProt Q00535+Q96SW2); experiment: PROTAC activity at CRBN/CDK5 in human PANC-1 cells assessed as induction of CDK5 degradation by measuring maximal efficacy by target engagement binding based cell-ELISA relative to control
Target sequence in this assay (Q00535 whole entry, looked up): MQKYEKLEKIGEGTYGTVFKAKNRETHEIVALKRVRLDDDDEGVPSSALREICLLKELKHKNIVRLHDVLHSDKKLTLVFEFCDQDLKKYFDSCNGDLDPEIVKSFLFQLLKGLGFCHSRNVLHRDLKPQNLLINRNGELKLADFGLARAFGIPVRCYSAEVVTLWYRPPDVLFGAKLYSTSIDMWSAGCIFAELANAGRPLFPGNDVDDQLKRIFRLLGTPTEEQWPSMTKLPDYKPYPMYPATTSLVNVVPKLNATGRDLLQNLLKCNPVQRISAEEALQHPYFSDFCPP
Target sequence in this assay (Q96SW2 whole entry, looked up): as the sequence (Q96SW2 whole entry, looked up) above

[5] = biological target: T2, Protein cereblon/Cyclin-dependent kinase 5; experiment: PROTAC activity at CRBN/CDK5 in human PANC-1 cells assessed as induction of CDK5 degradation at 0.5 to 2.8 uM incubated for 10 hrs in presence of MG132 by Western blot analysis; assay type: cell-based; details: dose 0.5-2.8 µM
Target sequence in this assay (Q00535 whole entry, looked up): as the sequence (Q00535 whole entry, looked up) above
Target sequence in this assay (Q96SW2 whole entry, looked up): as the sequence (Q96SW2 whole entry, looked up) above

[6] = biological target: T2, Protein cereblon/Cyclin-dependent kinase 5; experiment: PROTAC activity at CRBN/CDK5 in human PANC-1 cells assessed as induction of CDK5 degradation by target engagement binding based cell-ELISA
Target sequence in this assay (Q00535 whole entry): as the sequence (Q00535 whole entry, looked up) above
Target sequence in this assay (Q96SW2 whole entry): as the sequence (Q96SW2 whole entry, looked up) above

[7] = biological target: T2, Protein cereblon/Cyclin-dependent kinase 5; experiment: PROTAC activity at CRBN/CDK5 in human PANC-1 cells assessed as induction of CDK5 degradation at 1 to 2.8 uM incubated for 10 hrs by Western blot analysis; assay type: cell-based; details: dose 1-2.8 µM
Target sequence in this assay (Q00535 whole entry, looked up): as the sequence (Q00535 whole entry, looked up) above
Target sequence in this assay (Q96SW2 whole entry, looked up): as the sequence (Q96SW2 whole entry, looked up) above

[8] = biological target: T1, Protein cereblon/Glycogen synthase kinase-3 beta; experiment: PROTAC activity at CRBN/GSK3beta in human PANC-1 cells assessed as induction of GSK3beta degradation at 1 to 2.8 uM incubated for 10 hrs by Western blot analysis; assay type: cell-based; details: dose 1-2.8 µM
Target sequence in this assay (P49841 whole entry, looked up): as the sequence (P49841 whole entry, looked up) above
Target sequence in this assay (Q96SW2 whole entry, looked up): as the sequence (Q96SW2 whole entry, looked up) above

[9] = Permeability of compound in PBS at pH 7.4 at 500 uM incubated for 4 hrs by UV spectrophotometry based PAMPA; assay type: ADME; details: read-out: permeability
[10] = biological target: Protein cereblon/Cyclin-dependent kinase 2 (Homo sapiens, UniProt P24941+Q96SW2); experiment: PROTAC activity at CRBN/CDK2 (unknown origin) assessed as induction of CDK2 degradation; assay type: protein assay
[11] = Cytotoxicity against human HepG2 cells; assay type: toxicity, cell-based
[12] = Metabolic stability in pooled human liver microsomes assessed as half-life at 100 uM measured upto 120 mins by LC-MS/MS analysis; assay type: ADME, Microsome
[13] = Cytotoxicity against human A549 cells; assay type: toxicity, cell-based
Cytochrome P450 2B6 = biological target: T3, Cytochrome P450 2B6 (Homo sapiens, UniProt P20813); experiment: Inhibition of CYP2B6 (unknown origin) using bupropion as substrate […]; assay type: ADME
T3 sequence (P20813 whole entry): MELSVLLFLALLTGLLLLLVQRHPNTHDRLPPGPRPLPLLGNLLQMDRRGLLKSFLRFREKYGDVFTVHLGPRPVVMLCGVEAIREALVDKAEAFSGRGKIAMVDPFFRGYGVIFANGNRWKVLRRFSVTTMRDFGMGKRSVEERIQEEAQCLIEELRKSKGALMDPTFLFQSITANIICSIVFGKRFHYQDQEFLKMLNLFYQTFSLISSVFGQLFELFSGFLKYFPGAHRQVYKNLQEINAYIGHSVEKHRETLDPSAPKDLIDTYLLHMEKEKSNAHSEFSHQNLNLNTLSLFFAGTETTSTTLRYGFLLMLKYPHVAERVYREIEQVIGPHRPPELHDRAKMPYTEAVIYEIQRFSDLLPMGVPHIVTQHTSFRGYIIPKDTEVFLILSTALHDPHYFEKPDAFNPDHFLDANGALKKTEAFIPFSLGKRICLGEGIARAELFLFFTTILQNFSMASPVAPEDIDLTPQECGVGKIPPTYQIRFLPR

Structure (SMILES): O=C1CCC(N2C(=O)c3ccc(N4CCN(CCOCCC(=O)N5CCN(CCCn6cc(C7=C(c8c[nH]c9ccccc89)C(=O)NC7=O)c7ccccc76)CC5)CC4)cc3C2=O)C(=O)N1 (centres undefined)
- Activity [1]: inactive
- Emax [2]: 88%
- IC50 (MIA PaCa-2): 2430 nM
- IC50 (ASPC1): 3870 nM
- IC50 (BXPC-3): 2870 nM
- DC50 [3]: 56 nM
- IC50 (PANC-1): 2500 nM
- Emax [4]: 89%
- Activity [5]: inactive
- DC50 [6]: 52 nM
- Activity [7]: Active
- Activity [8]: Active
- Papp at 4 h, 500 µM [9]: 69.2 ×10⁻⁶ cm/s

Structure (SMILES): Cc1cscc1C(=O)n1nc(Nc2ccc(S(=O)(=O)NCCOCc3cn(CCOCCOCCNc4cccc5c4C(=O)N(C4CCC(=O)NC4=O)C5=O)nn3)cc2)nc1N (centres undefined)
- DC50 [10]: 61 nM

Structure (SMILES): CC(=O)c1c(C)c2cnc(Nc3ccc(N4CCNCC4)cn3)nc2n(C2CCCC2)c1=O [PALBOCICLIB]
- CC50 [11]: 8120 nM
- half-life at 100 µM [12]: 57 min
- CC50 [13]: 7950 nM

Structure (SMILES): O=C1CCC(N2C(=O)c3ccc(N4CCN(CCOCCC(=O)N5CCC(NC(=O)c6c[nH]nc6NC(=O)c6c(Cl)cccc6Cl)CC5)CC4)cc3C2=O)C(=O)N1 (centres undefined)
- Activity [1]: inactive
- Emax [2]: 89%
- IC50 (MIA PaCa-2): 2190 nM
- IC50 (ASPC1): 2250 nM
- IC50 (BXPC-3): 2210 nM
- DC50 [3]: 98 nM
- IC50 (PANC-1): 1950 nM
- Emax [4]: 90%
- Activity [5]: inactive
- DC50 [6]: 32 nM
- Activity [7]: Active
- Activity [8]: Active
- Papp at 4 h, 500 µM [9]: 38.6 ×10⁻⁶ cm/s

Structure (SMILES): O=C1CCC(N2C(=O)c3cccc(NCC(=O)N4CCC(C(=O)N5CCN(CCCn6cc(C7=C(c8c[nH]c9ccccc89)C(=O)NC7=O)c7ccccc76)CC5)CC4)c3C2=O)C(=O)N1 (centres undefined)
- Activity [1]: inactive
- Emax [2]: 81%
- IC50 (MIA PaCa-2): 3010 nM
- IC50 (ASPC1): 3580 nM
- IC50 (BXPC-3): 3540 nM
- DC50 [3]: 125 nM
- IC50 (PANC-1): 2810 nM
- Emax [4]: 78%
- Activity [5]: inactive
- DC50 [6]: 321 nM

Structure (SMILES): O=C1CCC(N2C(=O)c3cccc(NCCOCCOCCOCCOCCOCn4cc(CN5CCN(CCCn6cc(C7=C(c8c[nH]c9ccccc89)C(=O)NC7=O)c7ccccc76)CC5)nn4)c3C2=O)C(=O)N1 (centres undefined)
- Activity [1]: inactive
- Emax [2]: 75%
- IC50 (MIA PaCa-2): 4670 nM
- IC50 (ASPC1): 3350 nM
- IC50 (BXPC-3): 4870 nM
- DC50 [3]: 220 nM
- IC50 (PANC-1): 5720 nM
- Emax [4]: 78%
- Activity [5]: inactive
- DC50 [6]: 330 nM

Structure (SMILES): CN[C@H]1CC[C@@H](c2ccc(Cl)c(Cl)c2)c2ccccc21 [SERTRALINE]
- IC50 (Cytochrome P450 2B6): 12500 nM

Structure (SMILES): Cc1cc(=O)n(-c2ccccc2)n1C [ANTIPYRINE]
- Papp at 4 h, 500 µM [9]: 15.2 ×10⁻⁶ cm/s

Structure (SMILES): OC[C@@H](O)[C@@H](O)[C@H](O)[C@H](O)CO [MANNITOL]
- Papp at 4 h, 500 µM [9]: 4.08 ×10⁻⁶ cm/s

Structure (SMILES): CN(CCC(=O)N1CCC(NC(=O)c2c[nH]nc2NC(=O)c2c(Cl)cccc2Cl)CC1)C(=O)CNc1cccc2c1C(=O)N(C1CCC(=O)NC1=O)C2=O (centres undefined)
- Activity [1]: inactive
- Emax [2]: 78%
- IC50 (MIA PaCa-2): 3120 nM
- IC50 (ASPC1): 2560 nM
- IC50 (BXPC-3): 2890 nM
- DC50 [3]: 152 nM
- IC50 (PANC-1): 2340 nM
- Emax [4]: 90%
- Activity [5]: inactive
- DC50 [6]: 45 nM
- Papp at 4 h, 500 µM [9]: 31.3 ×10⁻⁶ cm/s

Structure (SMILES): O=C1Cc2c([nH]c3ccc(Br)cc23)-c2ccccc2N1 [KENPAULLONE]
- IC50 (MIA PaCa-2): 7200 nM
- IC50 (ASPC1): 6500 nM
- IC50 (BXPC-3): 9100 nM
- IC50 (PANC-1): 8600 nM

Structure (SMILES): O=C1CCC(N2C(=O)c3cccc(NCCOCCOCCOCC(=O)N4CCC(NC(=O)c5c[nH]nc5NC(=O)c5c(Cl)cccc5Cl)CC4)c3C2=O)C(=O)N1 (centres undefined)
- Activity [1]: inactive
- Emax [2]: 89%
- IC50 (MIA PaCa-2): 3810 nM
- IC50 (ASPC1): 3570 nM
- IC50 (BXPC-3): 3140 nM
- DC50 [3]: 90 nM
- IC50 (PANC-1): 2750 nM
- Emax [4]: 92%
- Activity [5]: inactive
- DC50 [6]: 36 nM
- Papp at 4 h, 500 µM [9]: 61.2 ×10⁻⁶ cm/s

Structure (SMILES): O=C1CCC(N2C(=O)c3cccc(NCCOCCOCCOCC(=O)N4CCN(CCCn5cc(C6=C(c7c[nH]c8ccccc78)C(=O)NC6=O)c6ccccc65)CC4)c3C2=O)C(=O)N1 (centres undefined)
- Activity [1]: inactive
- Emax [2]: 87%
- IC50 (MIA PaCa-2): 6610 nM
- IC50 (ASPC1): 5560 nM
- IC50 (BXPC-3): 5980 nM
- DC50 [3]: 96 nM
- IC50 (PANC-1): 5150 nM
- Emax [4]: 81%
- Activity [5]: inactive
- DC50 [6]: 210 nM
